According to patent US20240158446A1, “CYCLIC COMPOUND HAVING SELECTIVE INHIBITORY ACTION ON KRAS OVER HRAS AND NRAS” (CHUGAI SEIYAKU KABUSHIKI KAISHA, priority 2021, published 2024):

Columns and labels:
[1] = molecular target: GDP-bound NRAS wild-type protein (Homo sapiens, UniProt P01111); assay: Binding to NRAS by surface plasmon resonance (SPR), Single Cycle Kinetics; details: for NRAS/KRAS (ratio of KD value for NRAS to KD value for KRAS) / NRAS/KRAS (ratio of KD value with respect to NRAS to KD value with respect to KRAS): SPR, GDP-bound NRAS wild-type protein vs GDP-bound KRAS wild-type protein; for NRAS/KRAS (ratio of KD value with respect to GDP-bound NRAS wild-type protein to KD value with respect to KRAS): SPR KD ratio NRAS/KRAS, class symbols
GDP-bound NRAS wild-type protein, sequence (P01111 whole entry): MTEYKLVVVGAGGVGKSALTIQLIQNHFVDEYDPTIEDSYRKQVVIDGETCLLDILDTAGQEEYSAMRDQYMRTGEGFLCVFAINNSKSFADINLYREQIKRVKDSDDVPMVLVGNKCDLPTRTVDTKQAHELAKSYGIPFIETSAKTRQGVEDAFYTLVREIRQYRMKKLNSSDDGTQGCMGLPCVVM

[2] = molecular target: GDP-bound HRAS wild-type protein (Homo sapiens, UniProt P01112); assay: Binding to HRAS by surface plasmon resonance (SPR), Single Cycle Kinetics; details: for HRAS/KRAS (ratio of KD value for HRAS to KD value for KRAS) / HRAS/KRAS (ratio of KD value with respect to HRAS to KD value with respect to KRAS): SPR, GDP-bound HRAS wild-type protein vs GDP-bound KRAS wild-type protein; for HRAS/KRAS (ratio of KD value with respect to GDP-bound HRAS wild-type protein to KD value with respect to KRAS): SPR KD ratio HRAS/KRAS, class symbols
GDP-bound HRAS wild-type protein, sequence (P01112 whole entry): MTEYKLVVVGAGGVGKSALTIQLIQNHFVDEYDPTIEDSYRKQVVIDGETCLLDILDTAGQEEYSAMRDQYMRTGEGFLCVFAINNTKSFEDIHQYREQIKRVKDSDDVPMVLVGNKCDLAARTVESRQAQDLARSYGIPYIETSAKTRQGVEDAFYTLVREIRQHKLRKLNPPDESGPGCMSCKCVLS

SMILES | NRAS/KRAS (ratio of KD value for NRAS to KD value for KRAS) ([1]; KD ratio class) | HRAS/KRAS (ratio of KD value for HRAS to KD value for KRAS) ([2]; KD ratio class) | NRAS/KRAS (ratio of KD value for NRAS to KD value for KRAS) [1] | HRAS/KRAS (ratio of KD value for HRAS to KD value for KRAS) [2] | also measured
CCO[C@@H]1C[C@H]2C(=O)NC3(CCC3)C(=O)N(C)[C@@H](C3CCCC3)C(=O)N(C)[C@H](C)CC(=O)N(C)[C@@H](CC(C)C)C(=O)N[C@@H]([C@@H](C)CC)C(=O)N(C)CC(=O)N(C)[C@H]3C/C=C\CCN(C3=O)[C@@H](Cc3ccc(F)cc3C)C(=O)N(C)CC(=O)N[C@@H](CCc3cc(F)c(C(F)(F)F)c(F)c3)C(=O)N2C1 [PP1493] | B (a compound having 3 or more and less than 10 is denoted as B) | B (a compound having 3 or more and less than 10 is denoted as B) | – | – | –
CCO[C@@H]1C[C@H]2C(=O)NC3(CCC3)C(=O)N(C)[C@@H](C3CCCC3)C(=O)N(C)[C@H](C(=O)N3CCOCC3)CC(=O)N(C)[C@@H](CC3CCCC3)C(=O)N[C@@H]([C@@H](C)CC)C(=O)N(C)CC(=O)N(C)[C@H]3CCCCCN(C3=O)[C@@H](Cc3ccc(C(F)(F)F)cc3)C(=O)N(C)CC(=O)N[C@@H](CCc3cc(F)c(C(F)(F)F)c(F)c3)C(=O)N2C1 [PP0685] | – | – | – | – | NRAS/KRAS (ratio of KD value with respect to NRAS to KD value with respect to KRAS) [1]: B (a compound having 3 or more and less than 10 is denoted as B); HRAS/KRAS (ratio of KD value with respect to HRAS to KD value with respect to KRAS) [2]: B (a compound having 3 or more and less than 10 is denoted as B)
CCO[C@@H]1C[C@H]2C(=O)NC3(CCC3)C(=O)N(C)[C@@H](C3CCCC3)C(=O)N(C)[C@H](C)CC(=O)N(C)[C@@H](CC3CC3)C(=O)N[C@@H]([C@@H](C)CC)C(=O)N(C)CC(=O)N(C)[C@H]3C/C=C\CCN(C3=O)[C@@H](Cc3ccc(F)cc3C)C(=O)N(C)CC(=O)N[C@@H](CCc3cc(F)c(C(F)(F)F)c(F)c3)C(=O)N2C1 [PP1489] | B (a compound having 3 or more and less than 10 is denoted as B) | B (a compound having 3 or more and less than 10 is denoted as B) | – | – | –
C=CCN1CC(=O)N(C)[C@H]2C/C=C\CCN(C2=O)[C@@H](Cc2ccc(C)cc2)C(=O)N(C)CC(=O)N[C@@H](CCc2ccc(C(F)(F)F)c(OC)c2)C(=O)N2C[C@H](OCC)C[C@H]2C(=O)NC2(CC(C)(C)C2)C(=O)N(C)[C@@H](C2CCCC2)C(=O)N(C)[C@H](C(=O)N(C)C)CC(=O)N(C)[C@@H](CC(C)C)C(=O)N[C@@H]([C@@H](C)CC)C1=O [PP2058] | – | – | A (a compound having 10 or more and less than 20 is denoted as A) | A (a compound having 10 or more and less than 20 is denoted as A) | –
CCO[C@@H]1C[C@H]2C(=O)NC3(CCC3)C(=O)N(C)[C@@H](C(CC)CC)C(=O)N(C)[C@H](C)CC(=O)N(C)[C@@H](CC(C)C)C(=O)N[C@@H]([C@@H](C)CC)C(=O)N(C)CC(=O)N(C)[C@H]3C/C=C\CCN(C3=O)[C@@H](Cc3ccc(F)cc3C)C(=O)N(C)CC(=O)N[C@@H](CCc3cc(F)c(C(F)(F)F)c(F)c3)C(=O)N2C1 [PP1524] | B (a compound having 3 or more and less than 10 is denoted as B) | B (a compound having 3 or more and less than 10 is denoted as B) | – | – | –
CCOC[C@H]1C(=O)N[C@@H]([C@@H](C)CC)C(=O)N(C)CC(=O)N(C)[C@H]2C/C=C\CCN(C2=O)[C@@H](Cc2ccc(C(C)=O)cc2)C(=O)N(C)CC(=O)N[C@@H](CCc2ccc(C(F)(F)F)c(OC)c2)C(=O)N2C[C@@H](C)C[C@H]2C(=O)NC2(CC(C)(C)C2)C(=O)N(C)[C@@H](C2CCCC2)C(=O)N(C)[C@H](C(=O)N(C)CC)CC(=O)N1C [PP2703] | – | – | – | – | NRAS/KRAS (ratio of KD value with respect to GDP-bound NRAS wild-type protein to KD value with respect to KRAS) [1]: AA (a compound having 20 or more is denoted as AA); HRAS/KRAS (ratio of KD value with respect to GDP-bound HRAS wild-type protein to KD value with respect to KRAS) [2]: A (a compound having 10 or more and less than 20 is denoted as A)
C=CCCCCN(C)C(=O)[C@@H]1CC(=O)N(C)[C@@H](CC2CC2)C(=O)N[C@@H](CC=C)C(=O)N(C)CC(=O)N(C)[C@H]2C/C=C\CCN(C2=O)[C@@H](Cc2ccc(C(F)(F)F)cc2)C(=O)N(C)CC(=O)N[C@@H](CCc2cc(F)c(C(F)(F)F)c(F)c2)C(=O)N2C[C@H](OCC)C[C@H]2C(=O)NC2(CCC2)C(=O)N(C)[C@@H](C2CCCC2)C(=O)N1C [PP1554] | A (a compound having 10 or more and less than 20 is denoted as A) | A (a compound having 10 or more and less than 20 is denoted as A) | – | – | –
CCCOC[C@H]1C(=O)N[C@@H]([C@@H](C)CC)C(=O)N(C)CC(=O)N(C)[C@H]2C/C=C\CCN(C2=O)[C@@H](Cc2ccc(C)cc2)C(=O)N(C)CC(=O)N[C@@H](CCc2cc(F)c(C(F)(F)F)c(F)c2)C(=O)N2C[C@H](OCC)C[C@H]2C(=O)NC2(CC(C)(C)C2)C(=O)N(C)[C@@H](C2CCCC2)C(=O)N(C)[C@H](C(=O)N(CC)CC)CC(=O)N1C [PP1578] | A (a compound having 10 or more and less than 20 is denoted as A) | A (a compound having 10 or more and less than 20 is denoted as A) | – | – | –
CC[C@H](C)[C@@H]1NC(=O)[C@H](CC(C)C)N(C)C(=O)C[C@@H](C(=O)N2CCOCC2)N(C)C(=O)[C@H](C2CCCC2)N(C)C(=O)C2(CCC2)NC(=O)[C@@H]2[C@H](OC)CCN2C(=O)[C@H](CCc2cc(F)c(C(F)(F)F)c(F)c2)NC(=O)CN(C)C(=O)[C@H](Cc2ccc(C(F)(F)F)cc2)N2CCCC[C@@H](C2=O)N(C)C(=O)CN(C)C1=O [PP1078] | – | – | B (a compound having 3 or more and less than 10 is denoted as B) | B (a compound having 3 or more and less than 10 is denoted as B) | –
CCO[C@@H]1C[C@H]2C(=O)NC3(CC(C)(C)C3)C(=O)N(C)[C@@H](C3CCCC3)C(=O)N(C)[C@H](C(=O)N(C)CC)CC(=O)N(C)[C@H]3C/C=C/c4ccc(cc4)C[C@@H](C(=O)N(C)CC(=O)N[C@@H](CCc4ccc(Cl)c(Cl)c4)C(=O)N2C1)N1CC/C=C\C[C@@H](C1=O)N(C)C(=O)CN(C)C(=O)[C@H]([C@@H](C)CC)NC3=O [PP3056] | – | – | A (a compound having 10 or more and less than 20 is denoted as A) | A (a compound having 10 or more and less than 20 is denoted as A) | –
CCC[C@H]1C(=O)N[C@@H]([C@H](C)CC)C(=O)N(C)CC(=O)N(C)[C@H]2C/C=C\CCN(C2=O)[C@@H](Cc2ccc(C)cc2)C(=O)N(C)CC(=O)N[C@@H](CCc2ccc(C(F)(F)F)c(Cl)c2)C(=O)N2C[C@H](OCC)C[C@H]2C(=O)NC2(CC(C)(C)C2)C(=O)N(C)[C@@H](C2CCCC2)C(=O)N(C)[C@H](C(=O)N(C)C)CC(=O)N1C [PP2221] | – | – | A (a compound having 10 or more and less than 20 is denoted as A) | A (a compound having 10 or more and less than 20 is denoted as A) | –
CCOC[C@H]1C(=O)N[C@@H]([C@@H](C)CC)C(=O)N(C)CC(=O)N(C)[C@H]2CCCCCN(C2=O)[C@@H](Cc2ccc(C(F)(F)F)cc2)C(=O)N(C)CC(=O)N[C@@H](CCc2cc(F)c(C(F)(F)F)c(F)c2)C(=O)N2C[C@H](OCC)C[C@H]2C(=O)NC2(CCC2)C(=O)N(C)[C@@H](C2CCCC2)C(=O)N(C)[C@H](C(=O)N2CCOCC2)CC(=O)N1C [PP0851] | – | – | B (a compound having 3 or more and less than 10 is denoted as B) | B (a compound having 3 or more and less than 10 is denoted as B) | –
CCC(CC)[C@H]1C(=O)N(C)[C@H](C(=O)N(C)C)CC(=O)N(C)[C@@H](COC)C(=O)N[C@@H]([C@@H](C)CC)C(=O)N(C)CC(=O)N(C)[C@H]2C/C=C\CCN(C2=O)[C@@H](Cc2ccc(C)cc2)C(=O)N(C)CC(=O)N[C@@H](CCc2ccc(Cl)c(Cl)c2)C(=O)N2CCCCC[C@H]2C(=O)NC2(CC(C)(C)C2)C(=O)N1C [PP2974] | – | – | A (a compound having 10 or more and less than 20 is denoted as A) | A (a compound having 10 or more and less than 20 is denoted as A) | –
CCO[C@@H]1C[C@H]2C(=O)NC3(CC(C)(C)C3)C(=O)N(C)[C@@H](C3CCCC3)C(=O)N(C)[C@H](C(=O)N(C)C)CC(=O)N(C)[C@@H](CC(C)C)C(=O)N[C@@H]([C@@H](C)CC)C(=O)N(C)CC(=O)N(C)[C@H]3C/C=C\CCN(C3=O)[C@@H](Cc3ccc(C4CC4)cc3)C(=O)N(C)CC(=O)N[C@@H](CCc3ccc(C(F)(F)F)c(OC)c3)C(=O)N2C1 [PP2691, (2S,8S,12R,14S,20S,23S,27S,30S,36S,38Z)-20-cyclopentyl-2-[(4-cyclopropylphenyl)methyl]-12-ethoxy-27-isobutyl-8-[2-[3-methoxy-4-(trifluoromethyl)phenyl]ethyl]-N,N,3′,3′,4,19,22,26,32,35-decamethyl-30-[(1S)-1-methylpropyl]-3,6,9,15,18,21,25,28,31,34,42-undecaoxo-spiro[1,4,7,10,16,19,22,26,29,32,35-undecazatricyclo[34.5.1.0^10,14]dotetracont-38-ene-17,1′-cyclobutane]-23-carboxamide] | – | – | – | – | NRAS/KRAS (ratio of KD value with respect to GDP-bound NRAS wild-type protein to KD value with respect to KRAS) [1]: AA (a compound having 20 or more is denoted as AA); HRAS/KRAS (ratio of KD value with respect to GDP-bound HRAS wild-type protein to KD value with respect to KRAS) [2]: A (a compound having 10 or more and less than 20 is denoted as A)
CCCN1C(=O)[C@H](C2CCCC2)N(C)C(=O)C2(CCC2)NC(=O)[C@@H]2C[C@@H](OCC)CN2C(=O)[C@H](CCc2cc(F)c(C(F)(F)F)c(F)c2)NC(=O)CN(C)C(=O)[C@H](Cc2ccc(C(F)(F)F)cc2)N2CCCC[C@@H](C2=O)N(C)C(=O)CN(C)C(=O)[C@H]([C@@H](C)CC)NC(=O)[C@H](CC)N(C)C(=O)C[C@H]1C(=O)N(C)C [PP0644] | – | – | – | – | NRAS/KRAS (ratio of KD value with respect to NRAS to KD value with respect to KRAS) [1]: C (A compound having a KD ratio of 0.1 or more and less than 3 is denoted as C); HRAS/KRAS (ratio of KD value with respect to HRAS to KD value with respect to KRAS) [2]: B (a compound having 3 or more and less than 10 is denoted as B)
